Laboratory results published in ChEMBL document CHEMBL3751851, “Antileukemic activity of lignans and phenylpropanoids of Cinnamomum parthenoxylon” (Bioorg Med Chem Lett, 2016).
Active and inactive are the calls of the source. The rule behind the calls is not given here.

Tests used:
[1] = test system: HL-60; test: Induction of apoptotic morphological changes in human HL60 cells at 50 uM after 48 hrs by Hoechst 33342 staining; type: functional, cell-based
[2] = test system: U-937; test: Induction of apoptotic morphological changes in human U937 cells at 50 uM after 48 hrs by Hoechst 33342 staining; type: functional, cell-based
[3] = Cytotoxicity against human U937 cells after 48 hrs by CCK8 assay; type: functional, cell-based; settings: U-937, 48 h
[4] = Cytotoxicity against human HL60 cells after 48 hrs by CCK8 assay; type: functional, cell-based; settings: HL-60, 48 h
[5] = test system: Huh-7; test: Induction of apoptosis in human HuH7 cells assessed as increase of casapase-3 activity after 1 hr by DEVD-pNA cleavage assay relative to control; type: functional

Row | SMILES | Activity [1] | Activity [2] | IC50 [3] | IC50 [4] | fold change (FC) [5]
1 | OC1OC[C@H](Cc2ccc3c(c2)OCO3)[C@H]1Cc1ccc2c(c1)OCO2 (stereo partly specified) | Active | Active | 15.7 µM | 38.2 µM | –
2 | c1cc2c(cc1C[C@H]1COC[C@@H]1Cc1ccc3c(c1)OCO3)OCO2 | – | Active | 40.2 µM | 51.1 µM | –
3 | O=C1OC[C@H](Cc2ccc3c(c2)OCO3)[C@H]1Cc1ccc2c(c1)OCO2 [HINOKININ] | Active | Active | 10.4 µM | 31.3 µM | 2
4 | C=CCc1ccc2c(c1)OCO2 [SAFROLE] | – | – | 52.3 µM | 53.2 µM | –
5 | OCC(O)Cc1ccc2c(c1)OCO2 (stereo unspecified) [SAFROLGLYCOL] | – | – | 50.8 µM | 60 µM | –
